Results on 17 compounds are retold here after patent US20230373930A1, “AMINOIMIDAZOLE FPR2 AGONISTS” (BRISTOL-MYERS SQUIBB COMPANY, priority 2020, published 2023).

Some results are limits rather than exact numbers.

The target of one assay is T1, human FPR2 (Homo sapiens, UniProt P25090).
T1 sequence (P25090 1-351): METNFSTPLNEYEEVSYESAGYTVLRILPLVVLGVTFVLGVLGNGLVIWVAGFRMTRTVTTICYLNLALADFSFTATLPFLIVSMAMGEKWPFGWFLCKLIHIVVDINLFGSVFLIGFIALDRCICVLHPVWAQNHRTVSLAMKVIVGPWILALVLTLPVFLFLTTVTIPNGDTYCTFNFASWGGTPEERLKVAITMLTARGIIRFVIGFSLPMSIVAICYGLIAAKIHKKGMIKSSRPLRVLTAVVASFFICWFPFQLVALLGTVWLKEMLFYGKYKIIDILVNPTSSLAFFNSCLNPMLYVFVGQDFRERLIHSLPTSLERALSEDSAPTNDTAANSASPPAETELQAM
Nature of the assay: FPR2 cyclic adenosine monophosphate (cAMP) assay. The note with it: CHO cells overexpressing human FPR2; forskolin 5 μM; inhibition of cAMP production; HTRF; read-out: hFPR2 cAMP2 EC50. It counts as cell-based. An outline of the steps:
(§1)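 CHO cells overexpressing human FPR1 (4,000/well, 10 μM forskolin) or FPR2 (2,000/well, 5 μM forskolin) were incubated with 200 μM IBMX and compound (0.020 nM–100 μM, 1% DMSO) for 30 min at room temperature. Intracellular cAMP was measured by HTRF against a cAMP standard curve, and inhibition of cAMP production was fitted to a 4-parameter logistic.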

For another assay, the target named is T2, human FPR1 (Homo sapiens, UniProt P21462).
T2 sequence (P21462 1-350): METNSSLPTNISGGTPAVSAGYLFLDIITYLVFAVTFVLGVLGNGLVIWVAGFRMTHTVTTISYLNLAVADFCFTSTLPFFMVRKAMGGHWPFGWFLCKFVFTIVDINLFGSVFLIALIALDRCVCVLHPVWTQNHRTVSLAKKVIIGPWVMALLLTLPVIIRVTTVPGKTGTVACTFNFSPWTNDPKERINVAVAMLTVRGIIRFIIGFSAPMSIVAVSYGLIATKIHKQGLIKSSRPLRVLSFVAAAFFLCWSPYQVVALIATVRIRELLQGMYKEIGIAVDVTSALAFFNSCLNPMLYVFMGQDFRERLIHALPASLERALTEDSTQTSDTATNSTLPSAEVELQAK
Nature of the assay: FPR1 cyclic adenosine monophosphate (cAMP) assay. Type of assay: cell-based. To be noted: CHO cells overexpressing human FPR1; forskolin 10 μM; inhibition of cAMP production; HTRF; read-out: hFPR1 cAMP2 EC50. Put shortly:
as §1
In general terms: cAMP levels reflect the balance of adenylyl cyclase and phosphodiesterase activity.

For orientation: EC50 means the concentration giving half of the maximal effect. As to `CCS(=O)(=O)N1CCC(c2cn(-c3c(F)cc(OC)cc3F)c(NC(=O)c3ccc(OC(F)F)cc3)n2)CC1` [Example 65, N-[1-(2,6-Difluoro-4-methoxyphenyl)-4-[1-(ethanesulfonyl)piperidin-4-yl]-1H-imidazol-2-yl]-4-(difluoromethoxy)benzamide], the EC50 at human FPR2 was 81 nM; on human FPR1 it was 320 nM.

Take `COc1cc(F)c(-n2cc(C(=O)N3CC[C@H](O)C3)nc2NC(=O)c2ccc(OC(F)F)cc2)c(F)c1` [Example 57, N-[1-(2,6-Difluoro-4-methoxyphenyl)-4-[(3S)-3-hydroxypyrrolidine-1-carbonyl]-1H-imidazol-2-yl]-4-(difluoromethoxy)benzamide]: the results for the EC50 on human FPR2 and at human FPR1 were 120 nM and 1900 nM, respectively.

Take `COc1cc(F)c(-n2cc(CC(C)C)nc2NC(=O)c2ccc(OC(F)F)cc2)c(F)c1` [Example 35, N-[1-(2,6-Difluoro-4-methoxyphenyl)-4-(2-methylpropyl)-1H-imidazol-2-yl]-4-(difluoromethoxy)benzamide]: the results for the EC50 at human FPR2 and on human FPR1 were 99 nM and 1400 nM, respectively.

In the case of `COc1cc(F)c(-n2cc(C(=O)N3CCC(O)CC3)nc2NC(=O)c2ccc(OC(F)F)cc2)c(F)c1` [Example 52, N-[1-(2,6-Difluoro-4-methoxyphenyl)-4-(4-hydroxypiperidine-1-carbonyl)-1H-imidazol-2-yl]-4-(difluoromethoxy)benzamide], the EC50 on human FPR2 was 63 nM; on human FPR1, over 10000 nM.

Regarding `COc1cc(F)c(-n2cc(C3CCN(C(=O)CCO)CC3)nc2NC(=O)c2ccc(OC(F)F)cc2)c(F)c1` [Example 68, N-[1-(2,6-difluoro-4-methoxyphenyl)-4-[1-(3-hydroxypropanoyl)piperidin-4-yl]-1H-imidazol-2-yl]-4-(difluoromethoxy)benzamide], the results for the EC50 at human FPR2 and at human FPR1 were 45 nM and 110 nM, respectively.

On to `COc1cc(F)c(-n2cc(-c3nccs3)nc2NC(=O)c2ccc(OC(F)F)cc2)c(F)c1` [Example 40, N-[1-(2,6-Difluoro-4-methoxyphenyl)-4-(1,3-thiazol-2-yl)-1H-imidazol-2-yl]-4-(difluoromethoxy)benzamide], for which the half-maximal effective concentration (EC50) at human FPR2 is 11 nM; at human FPR1, 1000 nM.

For `COc1cc(F)c(-n2cc(C(=O)N3CCC(CO)C3)nc2NC(=O)c2ccc(OC(F)F)cc2)c(F)c1` (stereo not shown) [Example 59, N-[1-(2,6-Difluoro-4-methoxyphenyl)-4-[3-(hydroxymethyl)pyrrolidine-1-carbonyl]-1H-imidazol-2-yl]-4-(difluoromethoxy)benzamide], the EC50 at human FPR2 was determined as 82 nM; on human FPR1, 2200 nM.

As for `COc1cc(F)c(-n2cc(C(=O)N3CCC(CO)CC3)nc2NC(=O)c2ccc(OC(F)F)cc2)c(F)c1` [Example 69, N-[1-(2,6-difluoro-4-methoxyphenyl)-4-[4-(hydroxymethyl)piperidine-1-carbonyl]-1H-imidazol-2-yl]-4-(difluoromethoxy)benzamide], the EC50 stood at 86 nM at human FPR2 and 2990 nM on human FPR1.

With `COc1cc(F)c(-n2c(NC(=O)c3ccc(OC(F)F)cc3)nc(-c3ccccc3)c2C)c(F)c1` [Example 8, N-[1-(2,6-Difluoro-4-methoxyphenyl)-5-methyl-4-phenyl-1H-imidazol-2-yl]-4-(difluoromethoxy)benzamide], the EC50 at human FPR2 was determined as 8 nM; at human FPR1, 230 nM.

As to `COc1ccc(-n2cc(-c3cc4cc(Cl)ccc4o3)nc2NC(=O)c2ccc(OC(F)F)cc2)cc1` [Example 26, N-[4-(5-Chloro-1-benzofuran-2-yl)-1-(4-methoxyphenyl)-1H-imidazol-2-yl]-4-(difluoromethoxy)benzamide], the concentration giving a half-maximal response (EC50) at human FPR2 stood at 72 nM; on human FPR1 it was 400 nM.

For `COc1cc(F)c(-n2cc(-c3ccn[nH]3)nc2NC(=O)c2ccc(OC(F)F)cc2)c(F)c1` [Example 80, N-[1-(2,6-difluoro-4-methoxyphenyl)-4-(1H-pyrazol-5-yl)-1H-imidazol-2-yl]-4-(difluoromethoxy)benzamide], the EC50 at human FPR2 is 59 nM; on human FPR1, 500 nM.

Regarding `COc1cc(F)c(-n2cc(-c3ccccc3F)nc2NC(=O)c2ccc(OC(F)F)cc2)c(F)c1` [Example 33, N-[1-(2,6-Difluoro-4-methoxyphenyl)-4-(2-fluorophenyl)-1H-imidazol-2-yl]-4-(difluoromethoxy)benzamide], the EC50 at human FPR2 amounted to 39 nM; at human FPR1, 940 nM.

For the compound `COc1cc(F)c(-n2cc(C(=O)N3CCN(C)CC3)nc2NC(=O)c2ccc(OC(F)F)cc2)c(F)c1` [Example 55, N-[1-(2,6-Difluoro-4-methoxyphenyl)-4-(4-methylpiperazine-1-carbonyl)-1H-imidazol-2-yl]-4-(difluoromethoxy)benzamide], the EC50 at human FPR2 was 280 nM; on human FPR1, over 10000 nM.

Turning to `COc1cc(F)c(-n2cc(-c3ccc(Cl)c(C)c3)nc2NC(=O)c2ccc(OC(F)F)cc2)c(F)c1` [Example 5, N-[4-(4-Chloro-3-methylphenyl)-1-(2,6-difluoro-4-methoxyphenyl)-1H-imidazol-2-yl]-4-(difluoromethoxy)benzamide], the EC50 was 47 nM at human FPR2 and 140 nM on human FPR1.

Turning to `COc1cc(F)c(-n2cc(-c3cccc(Cl)c3)nc2NC(=O)c2ccc(OC(F)F)cc2)c(F)c1` [Example 12, N-[4-(3-Chlorophenyl)-1-(2,6-difluoro-4-methoxyphenyl)-1H-imidazol-2-yl]-4-(difluoromethoxy)benzamide], the EC50 was 15 nM on human FPR2 and 450 nM on human FPR1.

As to `COc1cc(F)c(-n2c(NC(=O)c3ccc(OC(F)F)cc3)nc(-c3ccc(Cl)cc3)c2C)c(F)c1` [Example 13, N-[4-(4-Chlorophenyl)-1-(2,6-difluoro-4 methoxyphenyl)-5-methyl-1H-imidazol-2-yl]-4-(difluoromethoxy)benzamide], the values for the EC50 at human FPR2 and at human FPR1 were 53 nM and 550 nM, respectively.

On to `COc1ccc(-n2cc(C3CCCNC3)nc2NC(=O)c2ccc(OC(F)F)cc2)cc1` (stereo not shown) [Example 64, 4-(Difluoromethoxy)-N-[1-(4-methoxyphenyl)-4-(piperidin-3-yl)-1H-imidazol-2-yl]benzamide], for which the EC50 was found to be 11 nM at human FPR2 and 210 nM at human FPR1.
